Reference: patent US6599747B1, “Soil test” (University of Lancaster, priority 1998, dated 2003)

Assay: Extraction of soil-associated 14C-9-phenanthrene with aqueous HPCD solution
Assay type: physicochemical
Details: for Concentration Extracted into HPCD Solution: 20 h
Protocol: A sample was “spiked” with 10 mg kg^−1 14C-9phenanthrene. Samples of the soil (1.25 g) were then extracted for 20 hours (sufficient time for extraction of the rapidly i.e. non-kinetically restrained fraction of compounds to be exchanged—see Example 2) with increasing concentration solutions (25 ml) of HPCD in water. The amount of activity exchanged into the HPCD solution was measured as was the total activity present. The results are shown in Table 1 in which the activity units are dpm g^−1 soil (where dpm stands for disintegrations per minute).
The above extraction was repeated but using an HPCD solution having a concentration of 50 mM. However the extraction was terminated after 3, 6, 12, 18, 24 and 40 hours. The results are shown in Table 2 in which the activity units are dpm […] soil (where dpm stands for disintegration per minute).
Soil was “spiked” to concentrations of 25 and 50 mg kg^−1. The above extraction was repeated but using a HPCD solution having a concentration of 50 mM. Soil samples were aged for 1, 42 and 84 d prior to extraction. An extraction time of 20 h was used as before (Example 1 and 2 ). The biodegradability of the soil associated ^14C-9-phenanthrene was assessed using respirometry. Respirometers consisted of Erlyn,eyer flasks (250 mL), to which soil (10 g) and water (30 mL) were added. The flasks were innoculated (10^7-10^8 g^−1 soil) with a catabolocally active microbial culture. The sealed flasks were shaken and the carbon dioxide evolved from the biodegration of the phenanthrene trapped in potassium hydroxide (1 M, 1 mL.) Mineralisation was measured until it platcauted (240 h).

[1] = HPCD 0 mM, 20 h extraction, soil spiked 10 mg kg^−1
[2] = HPCD 5 mM, 20 h extraction, soil spiked 10 mg kg^−1
[3] = HPCD 10 mM, 20 h extraction, soil spiked 10 mg kg^−1
[4] = HPCD 20 mM, 20 h extraction, soil spiked 10 mg kg^−1
[5] = HPCD 40 mM, 20 h extraction, soil spiked 10 mg kg^−1
[6] = HPCD 50 mM, 20 h extraction, soil spiked 10 mg kg^−1
[7] = HPCD 60 mM, 20 h extraction, soil spiked 10 mg kg^−1

## c1ccc2c(c1)ccc1ccccc12 [phenanthrene]
20 h extraction, soil spiked 10 mg kg^−1
  HPCD solution concentration giving maximum extraction: 40 mM
[1]
  % Exchangeable with HPCD solution: 2.79%
  Activity Exchanged into HPCD Solution: 86.96 dpm g^−1 soil
[2]
  % Exchangeable with HPCD solution: 38.06%
  Activity Exchanged into HPCD Solution: 1186.25 dpm g^−1 soil
[3]
  % Exchangeable with HPCD solution: 45.88%
  Activity Exchanged into HPCD Solution: 1429.98 dpm g^−1 soil
[4]
  % Exchangeable with HPCD solution: 57.51%
  Activity Exchanged into HPCD Solution: 1792.47 dpm g^−1 soil
[5]
  % Exchangeable with HPCD solution: 71.63%
  Activity Exchanged into HPCD Solution: 2232.56 dpm g^−1 soil
HPCD 50 mM
  extraction time after which the rapidly (non-kinetically restrained) fraction was extracted: 6 h
[6]
  % Exchangeable with HPCD solution: 64.33%
  Activity Exchanged into HPCD Solution: 2005.03 dpm g^−1 soil
HPCD 50 mM, extraction time 0 h
  % Exchangeable with HPCD solution: 0.0%
HPCD 50 mM, extraction time 3 h
  % Exchangeable with HPCD solution: 64.2%
HPCD 50 mM, extraction time 6 h
  % Exchangeable with HPCD solution: 73.4%
HPCD 50 mM, extraction time 12 h
  % Exchangeable with HPCD solution: 72.8%
HPCD 50 mM, extraction time 18 h
  % Exchangeable with HPCD solution: 74.5%
HPCD 50 mM, extraction time 24 h
  % Exchangeable with HPCD solution: 76.8%
HPCD 50 mM, extraction time 40 h
  % Exchangeable with HPCD solution: 75.6%
[7]
  % Exchangeable with HPCD solution: 69.74%
  Activity Exchanged into HPCD Solution: 2173.65 dpm g^−1 soil
Soil spiked 25 mg/kg^−1, aged 1 d, HPCD 50 mM
  Concentration Extracted into HPCD Solution: 19.5 mg/kg^−1
Soil spiked 25 mg/kg^−1, aged 42 d, HPCD 50 mM
  Concentration Extracted into HPCD Solution: 17.6 mg/kg^−1
Soil spiked 25 mg/kg^−1, aged 84 d, HPCD 50 mM
  Concentration Extracted into HPCD Solution: 15.5 mg/kg^−1
Soil spiked 50 mg/kg^−1, aged 1 d, HPCD 50 mM
  Concentration Extracted into HPCD Solution: 29.9 mg/kg^−1
Soil spiked 50 mg/kg^−1, aged 42 d, HPCD 50 mM
  Concentration Extracted into HPCD Solution: 15.4 mg/kg^−1
Soil spiked 50 mg/kg^−1, aged 84 d, HPCD 50 mM
  Concentration Extracted into HPCD Solution: 1.0 mg/kg^−1
